Marks after values point to notes of the source that are not given here.
Tests used:
5HT1a [1] = target: T1, 5HT1a (Homo sapiens, UniProt P08908); assay: Functional assay (HTRF, cAMP or IP1), 5HT1a; assay type: cell-based
T1 sequence (P08908 1-422): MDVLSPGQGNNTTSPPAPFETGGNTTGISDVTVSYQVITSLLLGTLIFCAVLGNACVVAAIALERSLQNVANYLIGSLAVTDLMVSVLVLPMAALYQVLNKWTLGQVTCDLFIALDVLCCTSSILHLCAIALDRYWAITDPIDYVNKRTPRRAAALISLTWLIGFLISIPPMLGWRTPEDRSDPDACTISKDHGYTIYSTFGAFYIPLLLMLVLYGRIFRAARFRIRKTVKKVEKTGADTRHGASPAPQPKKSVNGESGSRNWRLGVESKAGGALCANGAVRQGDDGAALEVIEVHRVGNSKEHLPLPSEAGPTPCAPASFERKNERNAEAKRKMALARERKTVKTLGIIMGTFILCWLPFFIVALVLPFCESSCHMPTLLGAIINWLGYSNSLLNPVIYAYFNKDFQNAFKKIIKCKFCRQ
Excerpt: (§1) For the functional assay, Homogeneous Time Resolved Fluorescence (HTRF) was used to measure cAMP or IP1 as products of the functional agonist or antagonist binding of 5-HT1a, 2a,2b, 2c, 4e, 6, 7 to their respective ligand (8-OG-DPAT or serotonin). Cellular dielectric spectroscopy was used to measure impedance as the product of the functional agonist or antagonist binding of 5HT1b and determine their respective ligand (serotonin).

5-HT1b = 5-HT1b (Homo sapiens, UniProt P28222); assay: Functional assay (cellular dielectric spectroscopy, impedance), 5-HT1b; assay type: cell-based
Excerpt: as §1

5-HT-2c receptor = target: T2, 5-HT-2c receptor (Homo sapiens, UniProt P28335); assay: 5-HT receptor radioligand binding assay, 5-HT-2c; conditions: HEK-293 cells, 3H-mesulergine, read-out: IC50 (concentration causing 50% inhibition of binding)
T2 construct: expressed in transfected cells; host or cells: HEK-293
T2 sequence (P28335 33-458): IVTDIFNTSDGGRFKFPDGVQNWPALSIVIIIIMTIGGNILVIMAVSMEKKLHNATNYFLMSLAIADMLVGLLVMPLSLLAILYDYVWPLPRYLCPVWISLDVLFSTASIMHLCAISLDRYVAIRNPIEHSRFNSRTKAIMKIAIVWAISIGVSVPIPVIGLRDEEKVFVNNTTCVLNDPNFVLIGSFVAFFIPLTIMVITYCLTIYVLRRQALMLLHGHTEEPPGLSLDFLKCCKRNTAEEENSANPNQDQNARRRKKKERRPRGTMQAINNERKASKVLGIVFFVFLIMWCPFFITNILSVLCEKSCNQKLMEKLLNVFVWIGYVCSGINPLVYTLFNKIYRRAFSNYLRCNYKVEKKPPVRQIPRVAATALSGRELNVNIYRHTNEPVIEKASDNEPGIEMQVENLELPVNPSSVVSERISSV
Procedure: (§2) For receptor binding assays, stably expressing 5-HT1a, 1b, 1d and 2c receptors cells (HEK-293, rat cerebral cortex, CHO and HEK-293, respectively) were incubated with 0.3 or 1 nM of their respective radioligand (^3H—OH-DPAT, ^125I CYP, ^3H serotonin and ^3H-mesulergine) alone or in the presence of 1 nM to 10 μM of piromelatine. The bound radioligand was assessed. Non-specific binding was evaluated under the reaction contained with 8-OH-PTA, serotonin and RS-10221 (8-[5-(2,4-Dimethoxy-5-(4-trifluoromethylphenylsulphonamido)phenyl-5-oxopentyl]-1,3,8-triazaspiro[4.5]decane-2,4-dione hydrochloride).

[2] = system: patients with early symptomatic Alzheimer's disease; assay: Randomized, placebo controlled study of piromelatine in patients with early symptomatic Alzheimer's disease (cNTB, ADAS-Cog14, NPI, PSQI), analysed by 2:107,510,000-107,540,000 locus polymorphism carrier status; assay type: in vivo, human; design: key to Improvement, cNTB / Improvement, PSQI: ns = non-significant effect; deter = deterioration compared to placebo
Procedure: (§3) DNA extraction and SNP genotyping were performed as follows: For 107 patients, whole blood was collected at the time of enrollment, and genomic DNA was extracted from peripheral lymphocytes using a commercial kit. Variant genotyping of a combined Whole Genome and Whole Exome sequencing, was performed. The detection of variants associated with the response of the treatment was performed through a genome wide association study (GWAS) analysis (which is a known case-control paradigm). […] The general case-control allelic test was performed through a Cochran-Armitage trend test. […] The stratification was assessed by a complete-linkage hierarchical clustering using the pairwise population concordance as a constraint. The SNP calling was done on the aligned BAM files using DRAGEN: support.illumina.com/help/DRAGEN_Germline_OLH_1000000083701/Content/Source/Informatics/Apps/DRAGENGermlineSmallVarCaller_appDRAG.htm and filter SNPs using VQSR: gatk.broadinstitute.org/hc/en-us/articles/360035531612-Variant-Quality-Score-Recalibration-VQSR.
To further explore the relationship between these paradoxical responses and other variables in the study, changes in ADAS-Cog14 and relationships with the other variables for the intermediate dose (20 mg) of piromelatine were analyzed (Table 2). […] Moreover, in this trial, 39% of patients treated with the 20 mg piromelatine that were not carriers of the 2:107,510,000-107,540,000 locus polymorphism improved (decreased)>4 points in the ADAS-Cog14 and thus were considered “responders (beneficial response)” vs. only 8% of the patients treated with the 20 mg piromelatine that were carriers of the 2:107,510,000-107,540,000 locus polymorphism (Table 2).
To further explore the relationship between these paradoxical responses and other variables in the study, changes in cNTB, ADAS-Cog14 and PSQI for the low dose (5 mg) of piromelatine were analyzed (Table 3). […] However, only carriers of a 2:107,510,000-107,540,000 locus polymorphism improved on the computerized Neuropsychological Test Battery (cNTB) upon treatment with the 5 mg piromelatine dose and the main performance domains being the episodic memory domain composite score and attention domain composite score.

5-HT1d = 5-HT1d (Homo sapiens, UniProt P28221); assay: Functional assay, 5-HT1d; assay type: cell-based
Excerpt: [Worded in the source for another target; this target is reported under the same test.] as §1

5-HT-2a receptor = 5-HT-2a receptor (Homo sapiens, UniProt P28223); assay: 5-HT receptor binding, 5-HT-2a; conditions: read-out: IC50 (concentration causing 50% inhibition of binding)
5-HT-1b receptor = target: T3, 5-HT-1b receptor (Rattus norvegicus, UniProt P28564); assay: 5-HT receptor radioligand binding assay, 5-HT-1b; conditions: rat cerebral cortex, 125I CYP, read-out: IC50 (concentration causing 50% inhibition of binding)
T3 construct: stably expressing 5-HT1a, 1b, 1d and 2c receptors cells (HEK-293, rat cerebral cortex, CHO and HEK-293, respectively); from tissue; host or cells: rat cerebral cortex
Procedure: as §2

5-HT-7 receptor = 5-HT-7 receptor (Homo sapiens, UniProt P34969); assay: 5-HT receptor binding, 5-HT-7; conditions: read-out: IC50 (concentration causing 50% inhibition of binding)
[3] = system: 60 different ion channels and receptors of different neurotransmitters and hormones; assay: Full profile of binding to an additional 60 ion channels and receptors; conditions: 10 μM of piromelatine; none of the 60 assays
Procedure: A full profile of binding parameters to an additional 60 different ion channels and receptors of different neurotransmitters and hormones was performed (data not shown because none of the 60 receptor assays yielded a significant (>50%) inhibition by 10 μM of piromelatine).

5-HT-6 receptor = 5-HT-6 receptor (Homo sapiens, UniProt P50406); assay: 5-HT receptor binding, 5-HT-6; conditions: read-out: IC50 (concentration causing 50% inhibition of binding)
5-HT-1d receptor = target: T4, 5-HT-1d receptor (Rattus norvegicus, UniProt P28565); assay: 5-HT receptor radioligand binding assay, 5-HT-1d; conditions: CHO cells, 3H serotonin, read-out: IC50 (concentration causing 50% inhibition of binding)
T4 construct: expressed in transfected cells; host or cells: CHO
Procedure: as §2

[4] = system: patients with early symptomatic Alzheimer's disease; assay: Randomized, placebo controlled study of piromelatine in patients with early symptomatic Alzheimer's disease (cNTB, ADAS-Cog14, NPI, PSQI), analysed by 2:107,510,000-107,540,000 locus polymorphism carrier status; assay type: in vivo, human; design: key: ns = non-significant effect; deter = deterioration; conditions: carriers (N = 12); 20 mg daily for 26 weeks
Procedure: as §3, with “The SNP calling was done on the aligned BAM files using DRAGEN: support.illumina.com/help/DRAGEN_Germline_OLH_1000000083701/Content/Source/Informatics/Apps/DRAGENGermlineSmallVarCaller_appDRAG.htm and filter SNPs using VQSR: gatk.broadinstitute.org/hc/en-us/articles/360035531612-Variant-Quality-Score-Recalibration-VQSR.” left out
(§4) To further explore the relationship between these paradoxical responses and other variables in the study, changes in ADAS-Cog14 and relationships with the other variables for the intermediate dose (20 mg) of piromelatine were analyzed (Table 2). […]
(§5) To further explore the relationship between these paradoxical responses and other variables in the study, changes in cNTB, ADAS-Cog14 and PSQI for the low dose (5 mg) of piromelatine were analyzed (Table 3). […]

5-HT-4 receptor = 5-HT-4 receptor (Homo sapiens, UniProt Q13639); assay: 5-HT receptor binding, 5-HT-4; conditions: read-out: IC50 (concentration causing 50% inhibition of binding)
[5] = system: patients with early symptomatic Alzheimer's disease; assay: Randomized, placebo controlled study of piromelatine in patients with early symptomatic Alzheimer's disease (cNTB, ADAS-Cog14, NPI, PSQI), analysed by 2:107,510,000-107,540,000 locus polymorphism carrier status; assay type: in vivo, human; design: key: ns = non-significant effect; deter = deterioration compared to placebo; conditions: locus polymorphism carriers; 5, 20 and 50 mg daily for 26 weeks; compared to placebo
Procedure: as §3, with “The SNP calling was done on the aligned BAM files using DRAGEN: support.illumina.com/help/DRAGEN_Germline_OLH_1000000083701/Content/Source/Informatics/Apps/DRAGENGermlineSmallVarCaller_appDRAG.htm and filter SNPs using VQSR: gatk.broadinstitute.org/hc/en-us/articles/360035531612-Variant-Quality-Score-Recalibration-VQSR.” left out
as §4, §5

5HT1a [6] = target: T1, 5HT1a; assay: 5-HT receptor radioligand binding assay, 5-HT-1a; design: expressed in transfected cells; host or cells: HEK-293; conditions: HEK-293 cells, 3H-OH-DPAT, read-out: IC50 (concentration causing 50% inhibition of binding)
Procedure: as §2

[7] = carriers (N = 12), 20 mg daily for 26 weeks
[8] = carriers, 5 mg daily for 26 weeks
[9] = carriers, 5 mg daily for 26 weeks (N = 5)
[10] = locus polymorphism carriers, 5, 20 and 50 mg daily for 26 weeks, N = 19
[11] = locus polymorphism non-carriers, 5, 20 and 50 mg daily for 26 weeks, N = 59
[12] = locus polymorphism non-carriers, 5, 20 and 50 mg daily for 26 weeks, compared to placebo
[13] = non-carriers (N = 23), 20 mg daily for 26 weeks
[14] = non-carriers, 5 mg daily for 26 weeks
[15] = non-carriers, 5 mg daily for 26 weeks (N = 19)
[16] = whole study population n=352, 5, 20 and 50 mg daily for 6 months

Sequence of 5-HT-6 receptor (P50406 whole entry): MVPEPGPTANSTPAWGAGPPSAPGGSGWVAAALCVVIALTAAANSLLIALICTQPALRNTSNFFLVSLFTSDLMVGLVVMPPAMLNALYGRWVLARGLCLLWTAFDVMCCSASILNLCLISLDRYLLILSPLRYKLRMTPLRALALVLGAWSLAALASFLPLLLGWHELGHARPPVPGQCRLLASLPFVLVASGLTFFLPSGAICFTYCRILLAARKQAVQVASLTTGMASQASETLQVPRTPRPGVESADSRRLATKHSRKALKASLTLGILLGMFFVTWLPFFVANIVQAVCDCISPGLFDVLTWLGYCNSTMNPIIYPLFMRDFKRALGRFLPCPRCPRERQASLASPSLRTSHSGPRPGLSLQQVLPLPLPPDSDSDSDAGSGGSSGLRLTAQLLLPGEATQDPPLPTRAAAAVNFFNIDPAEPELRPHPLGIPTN
Sequence of 5-HT1b (P28222 whole entry, species assumed): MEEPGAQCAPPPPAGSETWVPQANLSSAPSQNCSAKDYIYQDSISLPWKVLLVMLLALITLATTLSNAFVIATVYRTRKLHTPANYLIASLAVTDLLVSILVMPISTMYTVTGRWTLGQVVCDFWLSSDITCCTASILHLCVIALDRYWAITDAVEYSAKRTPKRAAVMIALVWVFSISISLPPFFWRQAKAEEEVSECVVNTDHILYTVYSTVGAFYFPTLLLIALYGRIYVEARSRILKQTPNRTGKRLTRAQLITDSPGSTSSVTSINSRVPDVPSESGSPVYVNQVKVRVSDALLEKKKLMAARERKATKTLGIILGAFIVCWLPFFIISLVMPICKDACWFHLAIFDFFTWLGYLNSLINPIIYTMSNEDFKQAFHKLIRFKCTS
Sequence of 5-HT-2a receptor (P28223 whole entry): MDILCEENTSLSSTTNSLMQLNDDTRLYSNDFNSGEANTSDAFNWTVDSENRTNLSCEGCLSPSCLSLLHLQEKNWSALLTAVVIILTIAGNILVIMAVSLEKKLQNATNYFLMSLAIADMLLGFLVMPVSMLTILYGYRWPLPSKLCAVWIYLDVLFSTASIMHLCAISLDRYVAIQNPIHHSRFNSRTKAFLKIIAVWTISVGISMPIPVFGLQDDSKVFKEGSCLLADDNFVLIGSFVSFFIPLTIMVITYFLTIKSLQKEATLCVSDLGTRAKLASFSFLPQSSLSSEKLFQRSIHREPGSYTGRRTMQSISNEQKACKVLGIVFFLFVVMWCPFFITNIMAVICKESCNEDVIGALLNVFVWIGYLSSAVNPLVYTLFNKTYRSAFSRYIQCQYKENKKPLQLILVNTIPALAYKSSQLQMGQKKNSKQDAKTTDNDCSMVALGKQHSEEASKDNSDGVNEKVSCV
T4 sequence (P28565 whole entry): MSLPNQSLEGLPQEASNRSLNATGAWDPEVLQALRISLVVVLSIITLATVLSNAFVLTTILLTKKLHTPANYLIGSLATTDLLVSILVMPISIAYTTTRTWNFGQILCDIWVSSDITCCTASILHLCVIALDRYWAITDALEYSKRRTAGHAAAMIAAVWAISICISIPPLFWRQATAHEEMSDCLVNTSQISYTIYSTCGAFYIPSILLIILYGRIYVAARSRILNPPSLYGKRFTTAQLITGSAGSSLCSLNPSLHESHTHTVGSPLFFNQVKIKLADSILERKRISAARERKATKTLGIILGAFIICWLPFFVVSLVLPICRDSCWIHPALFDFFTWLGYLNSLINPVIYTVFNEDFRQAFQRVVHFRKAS
Sequence of 5-HT1d (P28221 whole entry, species assumed): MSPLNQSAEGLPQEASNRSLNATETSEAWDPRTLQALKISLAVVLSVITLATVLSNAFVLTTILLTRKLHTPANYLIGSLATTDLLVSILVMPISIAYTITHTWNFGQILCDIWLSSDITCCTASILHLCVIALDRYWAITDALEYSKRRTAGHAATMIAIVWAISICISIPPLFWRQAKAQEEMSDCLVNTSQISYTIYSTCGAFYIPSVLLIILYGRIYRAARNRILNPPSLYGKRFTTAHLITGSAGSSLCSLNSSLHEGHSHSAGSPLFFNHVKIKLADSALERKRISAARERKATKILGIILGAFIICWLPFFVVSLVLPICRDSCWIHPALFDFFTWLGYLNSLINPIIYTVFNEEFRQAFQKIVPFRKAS
Sequence of 5-HT-4 receptor (Q13639 whole entry): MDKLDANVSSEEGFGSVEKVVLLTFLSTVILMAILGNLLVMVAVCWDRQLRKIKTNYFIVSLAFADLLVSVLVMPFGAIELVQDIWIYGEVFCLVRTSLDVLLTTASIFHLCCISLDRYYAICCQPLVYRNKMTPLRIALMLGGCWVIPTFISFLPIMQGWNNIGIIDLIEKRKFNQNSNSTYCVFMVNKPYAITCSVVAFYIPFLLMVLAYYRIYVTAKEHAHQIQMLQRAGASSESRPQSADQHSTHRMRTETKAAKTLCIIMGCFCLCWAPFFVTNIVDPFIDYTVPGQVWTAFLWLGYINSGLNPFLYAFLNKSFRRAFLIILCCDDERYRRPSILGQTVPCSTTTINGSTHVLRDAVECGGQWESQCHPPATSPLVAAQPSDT
Sequence of 5-HT-7 receptor (P34969 whole entry): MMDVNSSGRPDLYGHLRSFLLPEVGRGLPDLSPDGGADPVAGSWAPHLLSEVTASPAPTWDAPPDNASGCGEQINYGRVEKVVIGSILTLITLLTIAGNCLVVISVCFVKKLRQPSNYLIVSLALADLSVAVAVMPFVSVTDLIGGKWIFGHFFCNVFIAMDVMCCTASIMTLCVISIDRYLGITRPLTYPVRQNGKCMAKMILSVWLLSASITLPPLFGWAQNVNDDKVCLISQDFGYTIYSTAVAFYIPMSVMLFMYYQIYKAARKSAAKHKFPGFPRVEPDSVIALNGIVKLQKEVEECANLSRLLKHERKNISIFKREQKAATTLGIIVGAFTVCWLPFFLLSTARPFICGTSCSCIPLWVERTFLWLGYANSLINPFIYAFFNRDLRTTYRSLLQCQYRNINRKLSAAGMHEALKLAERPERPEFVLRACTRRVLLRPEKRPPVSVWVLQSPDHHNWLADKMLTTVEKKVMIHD
T3 sequence (P28564 whole entry): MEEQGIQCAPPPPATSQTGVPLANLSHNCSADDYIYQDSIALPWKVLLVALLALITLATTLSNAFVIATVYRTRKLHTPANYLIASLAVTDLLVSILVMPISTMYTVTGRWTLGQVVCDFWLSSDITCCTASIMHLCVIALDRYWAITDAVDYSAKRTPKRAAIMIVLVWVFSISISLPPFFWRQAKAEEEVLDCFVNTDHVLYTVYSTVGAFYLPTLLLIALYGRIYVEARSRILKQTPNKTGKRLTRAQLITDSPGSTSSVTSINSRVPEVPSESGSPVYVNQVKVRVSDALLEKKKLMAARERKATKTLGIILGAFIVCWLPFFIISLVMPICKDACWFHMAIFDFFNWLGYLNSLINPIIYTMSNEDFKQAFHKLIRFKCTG

Structure (SMILES): COc1ccc2[nH]cc(CCNC(=O)c3cc(=O)cco3)c2c1 [piromelatine, N-(2-(5-methoxy-1H-indol-3-yl)ethyl)-4-oxo-4H-pyran-2-carboxamide]
- agonist activity in the functional assay (5HT1a [1]): moderate agonist activity
- agonist activity in the functional assay (5-HT1b): Low agonist activity
- IC50 (5-HT-2c receptor): 2800 nM
- ADAS-Cog14 % Responders (decrease ≥ 4) [2, 7]: 8%
- ADAS-Cog14 Change from baseline [2, 7]: 3.58
- Improvement, NPI [2, 7]: yes
- Improvement, PSQI [2, 7]: ns
- Improvement, cNTB [2, 7]: yes
- NPI Change from baseline [2, 7]: −3.08
- PSQI Change from baseline [2, 7]: −0.17
- cNTB Change from baseline [2, 7]: 0.44
- ADAS Cogl4, Cohen's d vs placebo > 0.2 [2, 8]: improvement
- PSQI, Cohen's d vs placebo > 0.2 [2, 8]: no improvement
- cNTB, Cohen's d vs placebo > 0.2 [2, 8]: improvement
- ADAS Cogl4 Change from Baseline [2, 9]: −6.40
- PSQI Change from baseline [2, 9]: −3.40
- cNTB Change from baseline [2, 9]: 0.28
- cNTB attention domain composite score ([2]; carriers, 20 mg dose): improved
- cNTB episodic memory domain composite score ([2]; carriers, 20 mg dose): improved
- ADAS-Cog14 Change from baseline [2, 10]: 0.63*
- cNTB Change from baseline [2, 10]: 0.38*
- Improvement, cNTB ([2]; locus polymorphism carriers, 5, 20 and 50 mg daily for 26 weeks, compared to placebo): yes
- ADAS-Cog14 Change from baseline [2, 11]: −1.07*
- cNTB Change from baseline [2, 11]: −0.04
- Improvement, ADAS-Cog14 [2, 12]: yes
- Improvement, cNTB [2, 12]: ns
- ADAS-Cog14 % Responders (decrease ≥ 4) [2, 13]: 39%
- ADAS-Cog14 Change from baseline [2, 13]: −2.91
- Improvement, ADAS-Cog14 [2, 13]: yes
- Improvement, NPI [2, 13]: yes
- Improvement, PSQI [2, 13]: yes
- Improvement, cNTB [2, 13]: ns
- NPI Change from baseline [2, 13]: −2.70
- PSQI Change from baseline [2, 13]: −2.13
- cNTB Change from baseline [2, 13]: −0.06
- ADAS Cogl4, Cohen's d vs placebo > 0.20 [2, 14]: no improvement
- PSQI, Cohen's d vs placebo > 0.20 [2, 14]: improvement
- cNTB, Cohen's d vs placebo > 0.20 [2, 14]: deterioration
- ADAS Cogl4 Change from Baseline [2, 15]: 1.11
- PSQI Change from baseline [2, 15]: −1.11
- cNTB Change from baseline [2, 15]: −0.21
- ADAS-Cog14, drug vs placebo [2, 16]: no statistically significant differences
- global composite score of the cNTB, drug vs placebo [2, 16]: no statistically significant differences
- agonist activity in the functional assay (5-HT1d): moderate agonist activity
- IC50 (5-HT-2a receptor): > 10 µM
- IC50 (5-HT-1b receptor): 8 µM
- IC50 (5-HT-7 receptor): > 10 µM
- inhibition in the 60 receptor assays [3]: ≤ 50%
- IC50 (5-HT-6 receptor): > 10 µM
- IC50 (5-HT-1d receptor): 460 nM
- Improvement, ADAS-Cog14 [4]: deter
- IC50 (5-HT-4 receptor): > 10 µM
- Improvement, ADAS-Cog14 [5]: deter
- IC50 (5HT1a [6]): 600 nM

From patent publication US11807907B2, “Method for diagnosing and treating subjects having single nucleotide polymorphisms in chromosome 2, 2:107,510,000-107,540,000 locus” (NEURIM PHARMACEUTICALS (1991) LTD., priority 2021, dated 2023)
